According to US20180282331A1, “7-Oxo -6-(sulfooxy)- 1,6-diazabicyclo [3.2.1] octane containing compounds and their use in treatment of bacterial infections (changed by PCT to: 7-OXO -6-(SULFOOXY)- 1,6-DIAZABICYCLO [3.2.1] OCTANE CONTAINING COMPOUNDS AND THEIR USE IN TREATMENT OF BACTERIAL INFECTIONS” (WOCKHARDT LIMITED, priority 2015, published 2018):

Assays:
Format in all cases: cell-based
E. coli 7 MP [1] = assay: MIC of Ceftazidime in combination with compound (4 mcg/ml), agar dilution; details: Escherichia coli, Ceftazidime alone or with constant 4 mcg/ml of compound
Experimental: (§1) The biological activity of representative compounds according to the invention against various bacterial strains was investigated. The Minimum Inhibitory Concentration (MIC) determination for the combinations was carried out in Muller Hinton Agar (MHA) (BD, USA) according to Clinical and Laboratory Standards Institute (CLSI) recommendations, (Clinical and Laboratory Standards Institute (CLSI), Performance Standards for Antimicrobial Susceptibility Testing, 20th Informational Supplement, M 100-S20, Volume 30, No. 1, 2010). In short, the test strains were adjusted to deliver about 10^4 CFU per spot with a multipoint inoculator (Applied Quality Services, UK). The plates were poured with MHA containing doubling concentration range of representative compounds according to present invention. The plates were inoculated and were incubated at 35° C. for 18 hours. […] The Table 5 depicts the antibacterial activity profile of compounds according to present invention against various multidrug resistant bacterial strains.
(§2) The combinations of compounds according to present invention were also tested for their antibacterial activity in combination with Ceftazidime. The plates were poured with MHA containing doubling concentration range of Ceftazidime in combination with constant concentration (4 mcg/ml) of representative compounds of Formula (I).

E. coli M 50 [2] = assay: as above; details: Escherichia coli, M50, Ceftazidime alone or with constant 4 mcg/ml of compound
Experimental: as §1, §2

E. coli NCTC 13352 [3] = assay: as above; details: Escherichia coli, NCTC13352, Ceftazidime alone or with constant 4 mcg/ml of compound
Experimental: as §1, §2

E. coli NCTC 13353 [4] = assay: as above; details: Escherichia coli, NCTC13353, Ceftazidime alone or with constant 4 mcg/ml of compound
Experimental: as §1, §2

[5] = test system: K. pneumoniae ATCC 700603; assay: as above; details: Klebsiella pneumoniae, ATCC700603, Ceftazidime alone or with constant 4 mcg/ml of compound
Experimental: as §1, §2

K. pneumoniae H521 [6] = assay: as above; details: Klebsiella pneumoniae, Ceftazidime alone or with constant 4 mcg/ml of compound
Experimental: as §1, §2

K. pneumoniae H525 [7] = assay: as above; details: Klebsiella pneumoniae, Ceftazidime alone or with constant 4 mcg/ml of compound
Experimental: as §1, §2

E. coli 7 MP [8] = assay: MIC, agar dilution (MHA), compound alone
Experimental: as §1

E. coli M 50 [9] = assay: MIC, agar dilution (MHA), compound alone
Experimental: as §1

E. coli NCTC 13352 [10] = assay: MIC, agar dilution (MHA), compound alone
Experimental: as §1

E. coli NCTC 13353 [11] = assay: MIC, agar dilution (MHA), compound alone
Experimental: as §1

[12] = test system: K. pneumoniae ATCC 700603; assay: MIC, agar dilution (MHA), compound alone
Experimental: as §1

K. pneumoniae H521 [13] = assay: MIC, agar dilution (MHA), compound alone
Experimental: as §1

K. pneumoniae H525 [14] = assay: MIC, agar dilution (MHA), compound alone
Experimental: as §1

[15] = Escherichia coli, E. coli 7 MP, compound alone, MHA, 35° C., 18 hours, read-out: MIC
[16] = Escherichia coli, M50, E. coli M 50, compound alone, MHA, 35° C., 18 hours, read-out: MIC
[17] = Escherichia coli, NCTC13352, E. coli NCTC 13352, compound alone, MHA, 35° C., 18 hours, read-out: MIC
[18] = Escherichia coli, NCTC13353, E. coli NCTC 13353, compound alone, MHA, 35° C., 18 hours, read-out: MIC
[19] = Klebsiella pneumoniae, ATCC700603, K. pneumoniae ATCC 700603, compound alone, MHA, 35° C., 18 hours, read-out: MIC
[20] = Klebsiella pneumoniae, K. pneumoniae H521, compound alone, MHA, 35° C., 18 hours, read-out: MIC
[21] = Klebsiella pneumoniae, K. pneumoniae H525, compound alone, MHA, 35° C., 18 hours, read-out: MIC

| MIC (E. coli 7 MP [8]; [15]) [µg/mL] | MIC (E. coli M 50 [9]; [16]) [µg/mL] | MIC (E. coli NCTC 13352 [10]; [17]) [µg/mL] | MIC (E. coli NCTC 13353 [11]; [18]) [µg/mL] | MIC [12, 19] [µg/mL] | MIC (K. pneumoniae H521 [13]; [20]) [µg/mL] | MIC (K. pneumoniae H525 [14]; [21]) [µg/mL] | Compound | other results |
| --- | --- | --- | --- | --- | --- | --- | --- | --- |
|  |  |  |  |  |  |  | CC(C)(O/N=C(\C(=O)N[C@@H]1C(=O)N2C(C(=O)[O-])=C(C[n+]3ccccc3)CS[C@H]12)c1csc(N)n1)C(=O)O [Ceftazidime] | MIC (E. coli 7 MP [1]): > 32 µg/mL; MIC (E. coli M 50 [2]): > 32 µg/mL; MIC (E. coli NCTC 13352 [3]): 16 µg/mL; MIC (E. coli NCTC 13353 [4]): > 32 µg/mL; MIC [5]: 16 µg/mL; MIC (K. pneumoniae H521 [6]): > 32 µg/mL; MIC (K. pneumoniae H525 [7]): > 32 µg/mL |
| 4 | 1 | 1 | 1 | > 32 | 2 | 1 | O=C(Cn1ccnc1COC(=O)[C@@H]1CCCN1)NNC(=O)[C@@H]1CC[C@@H]2CN1C(=O)N2OS(=O)(=O)O [Example 34] |  |
| 4 | 1 | 1 | 1 | > 32 | 2 | 2 | C[C@H](N)C(=O)OCc1nccn1CC(=O)NNC(=O)[C@@H]1CC[C@@H]2CN1C(=O)N2OS(=O)(=O)O [Example 35] |  |
|  |  |  |  |  |  |  | Nc1ccn(CC(=O)NNC(=O)[C@@H]2CC[C@@H]3CN2C(=O)N3OS(=O)(=O)[O-])c(=O)n1.[Na+] [Example 37] | MIC (E. coli 7 MP [8]; Escherichia coli, 7MP, 18 h): 4 µg/mL; MIC (E. coli M 50 [9]; Escherichia coli, M50, 18 h): 1 µg/mL; MIC (E. coli NCTC 13352 [10]; Escherichia coli, NCTC13352, 18 h): 2 µg/mL; MIC (E. coli NCTC 13353 [11]; Escherichia coli, NCTC13353, 18 h): 1 µg/mL; MIC ([12]; Klebsiella pneumoniae, ATCC700603, 18 h): > 32 µg/mL; MIC (K. pneumoniae H521 [13]; Klebsiella pneumoniae, H521, 18 h): 4 µg/mL; MIC (K. pneumoniae H525 [14]; Klebsiella pneumoniae, H525, 18 h): 4 µg/mL |
|  |  |  |  |  |  |  | O=C(Cn1nnnc1CCO)NNC(=O)[C@@H]1CC[C@@H]2CN1C(=O)N2OS(=O)(=O)O.[Na] [Example 38, Sodium salt of (2S,5R)-N′-{[5-(2-hydroxyethyl)-1H-tetrazol-1-yl]acetyl}-7-oxo-6-(sulfooxy)-1,6-diazabicyclo[3.2.1]octane-2-carbohydrazide] | MIC (E. coli 7 MP [8]; E. coli 7 MP, compound alone, MHA, 35° C., 18 hours): 1 µg/mL; MIC (E. coli M 50 [9]; E. coli M 50, compound alone, MHA, 35° C., 18 hours): 0.25 µg/mL; MIC (E. coli NCTC 13352 [10]; E. coli NCTC 13352, compound alone, MHA, 35° C., 18 hours): 0.25 µg/mL; MIC (E. coli NCTC 13353 [11]; E. coli NCTC 13353, compound alone, MHA, 35° C., 18 hours): 0.25 µg/mL; MIC ([12]; K. pneumoniae ATCC 700603, compound alone, MHA, 35° C., 18 hours): >32 µg/mL; MIC (K. pneumoniae H521 [13]; K. pneumoniae H521, compound alone, MHA, 35° C., 18 hours): 0.5 µg/mL; MIC (K. pneumoniae H525 [14]; K. pneumoniae H525, compound alone, MHA, 35° C., 18 hours): 0.5 µg/mL |
| 1 | 0.5 | 0.5 | 0.5 | > 32 | 1 | 2 | O=C(Cn1nnc(CCO)n1)NNC(=O)[C@@H]1CC[C@@H]2CN1C(=O)N2OS(=O)(=O)[O-].[Na+] [Example 39] |  |
| 4 | 2 | 2 | 1 | > 32 | 4 | 2 | O=C(Cn1ccnc1CCO)NNC(=O)[C@@H]1CC[C@@H]2CN1C(=O)N2OS(=O)(=O)[O-].[Na+] [Example 40] |  |
| 2 | 0.5 | 1 | 0.5 | > 32 | 2 | 1 | O=C(Cn1ccnc1CO)NNC(=O)[C@@H]1CC[C@@H]2CN1C(=O)N2OS(=O)(=O)[O-].[Na+] [Example 42] |  |
| > 32 | > 32 | > 32 | > 32 | > 32 | > 32 | > 32 | NCc1nnn(CCONC(=O)[C@@H]2CC[C@@H]3CN2C(=O)N3OS(=O)(=O)O)n1 [Example 44, (2S,5R)-N-{2-[5-(aminomethyl)-2H-tetrazol-2-yl]ethoxy}-7-oxo-6-(sulfooxy)-1,6-diazabicyclo[3.2.1]octane-2-carboxamide] |  |
| 32 | 4 | 8 | 4 | > 32 | 4 | 4 | NCCc1nnn(CCONC(=O)[C@@H]2CC[C@@H]3CN2C(=O)N3OS(=O)(=O)O)n1 [Example 46] |  |
| 32 | 8 | 8 | 8 | > 32 | > 32 | > 32 | O=C(NOCCn1ccnn1)[C@@H]1CC[C@@H]2CN1C(=O)N2OS(=O)(=O)O [Example 47] |  |
| > 32 | 8 | 16 | 8 | > 32 | > 32 | 32 | O=C(NOCCn1cncn1)[C@@H]1CC[C@@H]2CN1C(=O)N2OS(=O)(=O)O [Example 48] |  |
| > 32 | > 32 | > 32 | > 32 | > 32 | > 32 | > 32 | CCOC(=O)c1nnnn1CCONC(=O)[C@@H]1CC[C@@H]2CN1C(=O)N2OS(=O)(=O)[O-].[Na+] [Example 49] |  |
| 32 | 8 | 8 | 8 | > 32 | > 32 | > 32 | O=C(NOCCn1ncnn1)[C@@H]1CC[C@@H]2CN1C(=O)N2OS(=O)(=O)[O-].[Na+] [Example 50] |  |
| 16 | 4 | 8 | 4 | > 32 | > 32 | > 32 | O=C(NOCCn1cnnn1)[C@@H]1CC[C@@H]2CN1C(=O)N2OS(=O)(=O)[O-].[Na+] [Example 51] |  |
| 32 | > 32 | 8 | 4 | > 32 | 16 | 16 | Cc1nnnn1CCONC(=O)[C@@H]1CC[C@@H]2CN1C(=O)N2OS(=O)(=O)[O-].[Na+] [Example 53] |  |
| > 32 | 16 | 32 | 16 | > 32 | > 32 | > 32 | O=C(NOCCn1nnc(CCO)n1)[C@@H]1CC[C@@H]2CN1C(=O)N2OS(=O)(=O)[O-].[Na+] [Example 55] |  |
| > 32 | 4 | 8 | 4 | > 32 | 8 | 16 | O=C(NOCCn1nnnc1CCO)[C@@H]1CC[C@@H]2CN1C(=O)N2OS(=O)(=O)[O-].[Na+] [Example 56] |  |
